Where two headings read alike, the source gives them in different places.
Legend:
[1] = Pharmacokinetics of ketamine and its metabolite hydroxynorketamine in mouse serum, hippocampus and frontal cortex (noncompartmental analysis, LC-MS/MS); assay type: in vivo, C57BL/6J mice; conditions: for AUC0-∞ / t0.5λz / tmax / Cmax / MRT / k el / CL/F / Vd/F: ketamine 10 mg/kg i.p.; for Kp / Cmax / MRT / k el / CL/F / Vd/F: male, C57BL/6J, mouse, 10 mg/kg; for Kp: intraperitoneal; for Cmax / MRT / k el / CL/F / Vd/F: ip; for Cmax: read-out: Cmax; for MRT: read-out: MRT (converted); for k el: read-out: λz (converted); for Vd/F: read-out: Vz/F
[2] = tested on: treatment-resistant depression; parameters: method as in Serafini et al., 2014; conditions: ref Serafini et al., 2014; cited from earlier work
[3] = tested on: Zn levels in the Hp and FC; assay: Analysis of zinc (F-AAS) in the Hp and FC; assay type: in vivo, C57BL/6J mice; conditions: CRS + ZnD mice; three doses
Procedure: (§1) All the compounds/drugs used in the study were obtained commercially, except for hyperforin (sodium salt), which was received as a gift from Dr. Wilmar Schwabe GmbH and Co (Karlsruhe, Germany). […] The control group received only 0.9% NaCl.
The samples were mineralized before the experiments. Briefly, three independent test portions of 0.5 g each were weighed from each sample and transferred to Teflon vessels. Then, 2 mL of 30% H2O2 and 6 mL of 65% HNO3 (V) were added, and the mixture was subjected to wet mineralization in a closed system in a Magnum II mineralizer (ERTEC). Mineralization was carried out for 75 min with three cycles of magnetron operation, where the first 30 min was at 60% power, next 15 min was at 80% power, and the remaining 30 min was at 100% power. The mineralized solution thus obtained was heated on a hot plate at 120 °C for 60 min to remove the excess reagents. The samples were then quantitatively transferred to 10 mL flasks and used to determine the zinc content via the F–AAS method (adsorption and emission technique). An atomic absorption spectrometer (iCE 3500, Thermo Scientific, UK) was used to measure the Zn content; each sample was analyzed independently thrice, and the obtained results are presented as mean value ± standard error of mean (SEM).

[4] = tested on: mice subjected to CRS and CRS + ZnD; assay: Sucrose preference test (SPT) in mice subjected to CRS or CRS + ZnD; assay type: in vivo, C57BL/6J mice; conditions: three doses (ketamine 10 mg/kg, Ro 10 mg/kg, Hyp 2.5 mg/kg + Lan 10 mg/kg), 24 h after the last treatment
Procedure: as §1
(§2) One week after acclimation, the mice were subjected to either a zinc-adequate feed (ZnA, 50 mg/kg) or zinc-deficient/low-Zn feed (ZnD, 3 mg/kg). Beginning from the second week, some ZnD mice were additionally subjected to 3 weeks of CRS. At the beginning of the 5th week, the mice were subjected to their appropriate treatment schedules or behavioral tests (see schemes in the figures).
(§3) CRS was performed in accordance with the procedures of [Ding et al. (2016]) with modifications. Mice from the stress groups were restrained in well-ventilated tubes with caps and holes for breathing (in a separate room from the control groups) for 3 h/day over 3 weeks. After each restraint period, the mice were transferred to housing cages. The control mice were housed at 6 mice per cage in an enriched environment and were handled every third day.
Seven days before the tests, the control and stressed mice were singly housed. The tests were carried out as follows. Two bottles (water and 1% sucrose solution) were placed in each cage 63 h before the test. Twenty-four hours later, the bottles were switched from right to left. Fifteen hours before the tests, the animals were deprived of food, water, and sucrose. The tests lasted 2 h, and sucrose preference was calculated as a percentage of the volume of sucrose intake over the total volume of fluid intake (water and sucrose solution). The SPT was performed during the light phase.

[5] = tested on: mice subjected to CRS and CRS + ZnD; assay: Tail suspension test (TST) in mice subjected to CRS or CRS + ZnD; assay type: in vivo, C57BL/6J mice; conditions: three doses, 72 h after the last treatment
Procedure: as §1, §2, §3
The TST was performed as described in a previous work ([Pochwat et al., 2018]). Briefly, each mouse was suspended individually by the tail using adhesive tape (2 cm from the tail tip) affixed to a solid flat surface, and immobility times were measured for 6 min. […]

[6] = frontal cortex, frontal cortex, CRS + ZnD mice
[7] = frontal cortex, frontal cortex, CRS mice
[8] = frontal cortex, frontal cortex, Control mice
[9] = hippocampus, hippocampus, CRS + ZnD mice
[10] = hippocampus, hippocampus, CRS mice
[11] = hippocampus, hippocampus, Control mice

CNC1(c2ccccc2Cl)CCCCC1=O (centres unmarked) [Ketamine, ketamine]
AUC0-∞ ([1]; frontal cortex, CRS + ZnD mice): 65.97 µg·min/g | t0.5λz ([1]; frontal cortex, CRS + ZnD mice): 32.31 min | tmax ([1]; frontal cortex, CRS + ZnD mice): 10 min | AUC0-∞ ([1]; frontal cortex, CRS mice): 106.58 µg·min/g | t0.5λz ([1]; frontal cortex, CRS mice): 34.92 min | tmax ([1]; frontal cortex, CRS mice): 10 min | AUC0-∞ ([1]; frontal cortex, Control mice): 97.81 µg·min/g | t0.5λz ([1]; frontal cortex, Control mice): 30.49 min | AUC0-∞ ([1]; hippocampus, CRS + ZnD mice): 58.49 µg·min/g | t0.5λz ([1]; hippocampus, CRS + ZnD mice): 42.69 min | tmax ([1]; hippocampus, CRS + ZnD mice): 10 min | AUC0-∞ ([1]; hippocampus, CRS mice): 96.13 µg·min/g | t0.5λz ([1]; hippocampus, CRS mice): 39.68 min | tmax ([1]; hippocampus, CRS mice): 10 min | AUC0-∞ ([1]; hippocampus, Control mice): 80.90 µg·min/g | t0.5λz ([1]; hippocampus, Control mice): 37.36 min | Kp ([1]; brain structure (not specified) / serum, CRS + ZnD animals, read-out: tissue-to-serum AUC ratio for the parent drug): 1.3 | Kp ([1]; brain structure (not specified) / serum, CRS + ZnD animals, read-out: tissue-to-serum Cmax ratio for the parent drug): 1 | Cmax [1, 6]: 2650 ng/g | MRT [1, 6]: 28.8 min | k el [1, 6]: 0.000367 s⁻¹ | Cmax [1, 7]: 3030 ng/g | MRT [1, 7]: 28.4 min | k el [1, 7]: 0.000333 s⁻¹ | Cmax [1, 8]: 3460 ng/g | MRT [1, 8]: 30.1 min | k el [1, 8]: 0.000383 s⁻¹ | Kp ([1]; hippocampus and frontal cortex / serum, control and stress (CRS) groups, Hp and FC, read-out: tissue-to-serum Cmax and AUC ratios for the parent drug): 2.45 to 2.84 | Cmax [1, 9]: 2310 ng/g | MRT [1, 9]: 31.3 min | k el [1, 9]: 0.000267 s⁻¹ | Cmax [1, 10]: 3180 ng/g | MRT [1, 10]: 28.5 min | k el [1, 10]: 0.000283 s⁻¹ | Cmax [1, 11]: 2990 ng/g | MRT [1, 11]: 30.4 min | k el [1, 11]: 0.000317 s⁻¹ | CL/F ([1]; serum, serum, CRS + ZnD mice): 220 mL/min/kg | Cmax ([1]; serum, serum, CRS + ZnD mice): 2150 ng/mL | MRT ([1]; serum, serum, CRS + ZnD mice): 22 min | Vd/F ([1]; serum, serum, CRS + ZnD mice): 11.6 L/kg | k el ([1]; serum, serum, CRS + ZnD mice): 0.000317 s⁻¹ | Cmax ([1]; serum, serum, CRS mice): 1120 ng/mL | MRT ([1]; serum, serum, CRS mice): 29.8 min | Vd/F ([1]; serum, serum, CRS mice): 14.6 L/kg | k el ([1]; serum, serum, CRS mice): 0.000317 s⁻¹ | Cmax ([1]; serum, serum, Control mice): 1130 ng/mL | MRT ([1]; serum, serum, Control mice): 34.2 min | Vd/F ([1]; serum, serum, Control mice): 16 L/kg | k el ([1]; serum, serum, Control mice): 0.000317 s⁻¹ | CL/F ([1]; serum, CRS mice): 270 mL/min/kg | CL/F ([1]; serum, Control mice): 300 mL/min/kg | t0.5λz ([1]; serum, CRS + ZnD mice): 35.93 min | tmax ([1]; serum, CRS + ZnD mice): 10 min | t0.5λz ([1]; serum, CRS mice): 37.06 min | tmax ([1]; serum, CRS mice): 10 min | t0.5λz ([1]; serum, Control mice): 36.70 min | estimated efficacy [2]: 50–70% | Zn levels in the Hp and FC [3]: reduced the Zn levels | sucrose preference in the SPT ([4]; CRS + ZnD mice): failed to restore sucrose preference | sucrose preference in the SPT ([4]; CRS mice): restored the sucrose preference | immobility time in the TST [5]: ineffective

Reference: paper PMC9448861 (Frontiers in Pharmacology, 2022)
